The values below come from patent publication US20090069320A1, “Substituted 4-Amino-Quinazoline Compounds with Metabotropic Glutamate Receptor Regulating Activity and Uses Thereof” (Gruenenthal GmbH, priority 2006, published 2009).

Molecules are shown by their SMILES. Structures can show the parent of a compound that is named as a salt.

For the first experiment, the target named is T1, mGluR5 receptor (Sus scrofa, UniProt I3LUI7).
T1 construct: 450 μg of protein from brain homogenate with 5 nM ^3[H]-MPEP; from tissue; host or cells: pig brain halves without medulla, cerebellum and pons
T1 sequence (I3LUI7 19-1212): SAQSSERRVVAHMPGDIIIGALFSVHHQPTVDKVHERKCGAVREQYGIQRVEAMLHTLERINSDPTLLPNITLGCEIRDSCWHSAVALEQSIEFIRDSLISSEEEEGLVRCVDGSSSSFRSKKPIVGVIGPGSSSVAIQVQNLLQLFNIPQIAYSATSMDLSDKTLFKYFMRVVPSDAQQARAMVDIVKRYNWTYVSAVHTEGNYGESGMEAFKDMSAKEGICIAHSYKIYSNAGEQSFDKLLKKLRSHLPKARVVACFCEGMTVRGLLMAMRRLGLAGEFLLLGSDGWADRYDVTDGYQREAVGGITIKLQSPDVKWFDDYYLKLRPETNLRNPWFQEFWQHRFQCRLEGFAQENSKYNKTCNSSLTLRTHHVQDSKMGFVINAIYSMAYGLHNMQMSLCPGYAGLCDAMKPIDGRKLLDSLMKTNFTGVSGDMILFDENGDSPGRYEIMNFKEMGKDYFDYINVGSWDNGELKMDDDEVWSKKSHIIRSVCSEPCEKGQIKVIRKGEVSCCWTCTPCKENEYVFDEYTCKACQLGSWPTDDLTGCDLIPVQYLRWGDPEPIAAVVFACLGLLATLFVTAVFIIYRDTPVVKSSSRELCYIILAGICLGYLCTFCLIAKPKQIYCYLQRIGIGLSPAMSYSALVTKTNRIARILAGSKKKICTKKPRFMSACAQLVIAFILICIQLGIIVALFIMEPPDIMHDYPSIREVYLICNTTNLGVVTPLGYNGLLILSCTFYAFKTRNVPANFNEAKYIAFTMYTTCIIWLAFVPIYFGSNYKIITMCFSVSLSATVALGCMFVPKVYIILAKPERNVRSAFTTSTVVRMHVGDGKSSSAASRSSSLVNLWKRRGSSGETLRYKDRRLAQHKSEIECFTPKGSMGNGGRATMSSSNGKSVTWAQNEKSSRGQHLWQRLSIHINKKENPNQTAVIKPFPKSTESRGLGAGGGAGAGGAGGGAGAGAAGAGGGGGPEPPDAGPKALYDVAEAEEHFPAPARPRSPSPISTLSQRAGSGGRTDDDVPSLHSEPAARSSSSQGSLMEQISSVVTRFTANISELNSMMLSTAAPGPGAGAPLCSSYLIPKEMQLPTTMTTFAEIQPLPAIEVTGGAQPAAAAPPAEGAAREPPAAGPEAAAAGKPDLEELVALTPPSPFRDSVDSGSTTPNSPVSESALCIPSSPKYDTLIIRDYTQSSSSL
Briefly: [3H]-MPEP mGluR5 receptor binding assay (pig brain homogenate). The settings on record: 5 nM [3H]-MPEP, read-out: IC50 mGluR5 Receptor (pig) [^3H]-MPEP Bond. The method in brief: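 Compounds at 10 μM competed with 5 nM [3H]-MPEP for binding to pig brain membranes (450 μg protein) for 60 min at room temperature in pH 8.0 Hepes buffer. Bound radioactivity was collected on glass-fibre filters and read by β-counting, with 10 μM unlabelled MPEP giving non-specific binding.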
For the molecule `CC(C)(C)CNc1ncnc2ccc(-c3cccc(CN4C(=O)CCC4=O)c3)cc12` [Example 866, 1-(3-(4-(neopentylamino)quinazolin-6-yl)benzyl)pyrrolidine-2,5-dione], the 50% inhibitory concentration (IC50) (usually the concentration that inhibits the measured activity by half) was 90 nM.
Consider `O=C(N(Cc1cc(-c2ccc3ncnc(NC4CC4)c3c2)ccc1F)C1CC1)C(F)(F)F` [Example 870, N-cyclopropyl-N-(5-(4-(cyclopropylamino)quinazolin-6-yl)-2-fluorobenzyl)-2,2,2-trifluoroacetamide], for which the IC50 came out at 10 nM.
For `O=C1CCC(=O)N1Cc1cccc(-c2ccc3ncnc(NC4CCC4)c3c2)c1` [Example 872, 1-(3-(4-(cyclobutylamino)quinazolin-6-yl)benzyl)pyrrolidine-2,5-dione hydrochloride], the IC50 was 50 nM.
On to `CC(C)Nc1ncnc2ccc(-c3cccc(CN4C(=O)CCC4=O)c3)cc12` [Example 873, 1-(3-(4-(isopropylamino)quinazolin-6-yl)benzyl)pyrrolidine-2,5-dione hydrochloride], for which the IC50 was 80 nM.
The same measure, in the same setting: the same measure for `CN1CCN(Cc2cccc(-c3ccc4ncnc(NC5CC5)c4c3)c2)C1=O` [Example 877, 1-(3-(4-(cyclopropylamino)quinazolin-6-yl)benzyl)-3-methylimidazolidin-2-one]: 9570 nM.
Take `CC(=O)N(Cc1cccc(-c2ccc3ncnc(NC4CC4)c3c2)c1)C(C)=O` [Example 879, N-acetyl-N-(3-(4-(cyclopropylamino)quinazolin-6-yl)benzyl)acetamide]: the half-inhibitory concentration (IC50) was found to be 1660 nM.
Regarding `O=C1CCC(=O)N1Cc1cccc(-c2ccc3ncnc(N4CCCC4)c3c2)c1` [Example 880, 1-(3-(4-(pyrrolidin-1-yl)quinazolin-6-yl)benzyl)pyrrolidine-2,5-dione], the half-maximal inhibitory concentration (IC50) was found to be 4300 nM.
On the same count and under the same terms, with `O=C1CCC(=O)N1Cc1cccc(-c2cc(Cl)c3ncnc(NC4CC4)c3c2)c1` [Example 881, 1-(3-(8-chloro-4-(cyclopropylamino)quinazolin-6-yl)benzyl)pyrrolidine-2,5-dione] the figure was 20 nM; with `O=C1CCC(=O)N1Cc1cccc(-c2cc(C(F)(F)F)c3ncnc(NC4CC4)c3c2)c1` [Example 883, 1-(3-(4-(cyclopropylamino)-8-(trifluoromethyl)quinazolin-6-yl)benzyl)pyrrolidine-2,5-dione], 20 nM.
On the same count and under the same terms, the same measure for `Cc1cc2ncnc(NC3CC3)c2cc1-c1cccc(CN2C(=O)CCC2=O)c1` [Example 884, 1-(3-(4-(cyclopropylamino)-7-methylquinazolin-6-yl)benzyl)pyrrolidine-2,5-dione]: 130 nM; for `CC1CCC(=O)N1Cc1cccc(-c2ccc3ncnc(NC4CC4)c3c2)c1` (stereo not shown) [Example 885, 1-(3-(4-(cyclopropylamino)quinazolin-6-yl)benzyl)-5-methylpyrrolidine-2-one]: 400 nM.
Consider `C=CCN(Cc1cccc(-c2ccc3ncnc(NC4CC4)c3c2)c1)C(C)=O` [Example 886, N-allyl-N-(3-(4-(cyclopropylamino)quinazolin-6-yl)benzyl)acetamide], for which the half-inhibitory concentration (IC50) stood at 1980 nM.
`CCCN(Cc1cccc(-c2ccc3ncnc(NC4CC4)c3c2)c1)C(C)=O` [Example 887, N-(3-(4-(cyclopropylamino)quinazolin-6-yl)benzyl)-N-propylacetamide hydrochloride]: the IC50 was 3100 nM.
Regarding `c1ccc(N(Cc2cccc(-c3ccc4ncnc(NC5CC5)c4c3)c2)C2CC2)nc1` [Example 888, N-cyclopropyl-6-(3-((cyclopropyl(pyridin-2-yl)amino)methyl)phenyl)quinazoline-4-amine], the IC50 was 2650 nM.

Still in this experiment, the particulars now being: 10 μM compound, 5 nM [3H]-MPEP.
With `CC(=O)N(Cc1cc(-c2ccc3ncnc(NC(C)(C)C)c3c2)ccc1F)C1CC1` [Example 844, N-(5-(4-(tert-butylamino)quinazolin-6-yl)-2-fluorobenzyl)-N-cyclopropyl acetamide], the “% Inhibition of mGluR5 Receptor (pig) [^3H]-MPEP Bond at 10 μM” value (“% Inhibition of mGluR5 Receptor (pig)” for short) was 94%.
For `O=S(=O)(c1c(F)c(F)c(F)c(F)c1F)N(Cc1cc(-c2ccc3ncnc(NC4CC4)c3c2)ccn1)C1CC1` [Example 848, N-cyclopropyl-N-((4-(4-(cyclopropylamino)quinazolin-6-yl)pyridin-2-yl)methyl)-2,3,4,5,6-pentafluorobenzole sulfonamide], the “% Inhibition of mGluR5 Receptor (pig)” value is 53%.
Take `CC(C)(C)Nc1ncnc2ccc(-c3ccc(F)c(CN(C(=O)C(C)(C)C)C4CC4)c3)cc12` [Example 850, N-(5-(4-(tert-butylamino)quinazolin-6-yl)-2-fluorobenzyl)-N-cyclopropyl pivalamide]: the “% Inhibition of mGluR5 Receptor (pig)” value is given as 83%.
For `CNc1ncnc2ccc(-c3cccc(CN(c4ccccc4F)S(=O)(=O)c4ccccc4)c3)cc12` [Example 852, N-(2-fluorophenyl)-N-(3-(4-(methylamino)quinazolin-6-yl)benzyl)benzole sulfonamide], the “% Inhibition of mGluR5 Receptor (pig)” value is 49%.
Turning to `CC(C)S(=O)(=O)N(Cc1cc(-c2ccc3ncnc(NC4CC4)c3c2)ccc1Cl)C1CC1` [Example 854, N-(2-chloro-5-(4-(cyclopropylamino)quinazolin-6-yl)benzyl)-N-cyclopropyl propane-2-sulfonamide], the “% Inhibition of mGluR5 Receptor (pig)” value stood at 75%.
As for `CCCCC(=O)N(Cc1cc(-c2ccc3ncnc(NC(C)(C)C)c3c2)ccc1F)C1CC1` [Example 856, N-(5-(4-(tert-butylamino)quinazolin-6-yl)-2-fluorobenzyl)-N-cyclopropyl pentanamide], the “% Inhibition of mGluR5 Receptor (pig)” value was 89%.
On to `CC(C)(C)Nc1ncnc2ccc(-c3ccc(F)c(CN(C4CC4)S(=O)(=O)c4ccc(Cl)cc4Cl)c3)cc12` [Example 857, N-(5-(4-(tert-butylamino)quinazolin-6-yl)-2-fluorobenzyl)-2,4-dichloro-N-cyclopropyl benzole sulfonamide], for which the “% Inhibition of mGluR5 Receptor (pig)” value is listed as 36%.
With `O=S(=O)(c1cccc(C(F)(F)F)c1)N(Cc1cc(-c2ccc3ncnc(NC4CC4)c3c2)ccn1)C1CC1` [Example 858, N-cyclopropyl-N-((4-(4-(cyclopropylamino)quinazolin-6-yl)pyridin-2-yl)methyl)-3-(trifluoromethyl)benzole sulfonamide], the “% Inhibition of mGluR5 Receptor (pig)” value was 85%.

Still in this experiment, the particulars now being: 10 μM compound, 5 nM [3H]-MPEP, read-out: % Inhibition of mGluR5 Receptor (pig) [^3H]-MPEP Bond at 10 μM.
As for `COCC(=O)N(Cc1cc(-c2ccc3ncnc(NC(C)(C)C)c3c2)ccc1F)C1CC1` [Example 846, N-(5-(4-(tert-butylamino)quinazolin-6-yl)-2-fluorobenzyl)-N-cyclopropyl-2-methoxyacetamide], the inhibition – broadly, the share of the control response that was lost under treatment – at 10 µM turned out to be 82%.
On the same count and under the same terms, the same measure for `O=C(CCc1ccccc1)N(Cc1cc(-c2ccc3ncnc(NC4CC4)c3c2)ccn1)C1CC1` [Example 847, N-cyclopropyl-N-((4-(4-(cyclopropylamino)quinazolin-6-yl)pyridin-2-yl)methyl)-3-phenylpropanamide]: 43%.
Still for that read-out and setting: the same measure for `CC(C)(C)Nc1ncnc2ccc(-c3ccc(F)c(CN(C(=O)c4cccc(F)c4)C4CC4)c3)cc12` [Example 849, N-(5-(4-(tert-butylamino)quinazolin-6-yl)-2-fluorobenzyl)-N-cyclopropyl-3-fluorobenzamide]: 86%.
In the case of `CS(=O)(=O)N(Cc1cc(-c2ccc3ncnc(NC4CC4)c3c2)ccn1)C1CC1` [Example 853, N-cyclopropyl-N-((4-(4-(cyclopropylamino)quinazolin-6-yl)pyridin-2-yl)methyl)methane sulfonamide], the inhibition at 10 µM stood at 67%.
Same read-out and setting: the same measure for `CC(C)(C)Nc1ncnc2ccc(-c3ccc(F)c(CN(C(=O)c4ccc(F)cc4F)C4CC4)c3)cc12` [Example 855, N-(5-(4-(tert-butylamino)quinazolin-6-yl)-2-fluorobenzyl)-N-cyclopropyl-2,4-difluorobenzamide]: 83%; for `O=C(c1c(F)c(F)c(F)c(F)c1F)N(Cc1cc(-c2ccc3ncnc(NC4CC4)c3c2)ccc1Cl)C1CC1` [Example 859, N-(2-chloro-5-(4-(cyclopropylamino)quinazolin-6-yl)benzyl)-N-cyclopropyl-2,3,4,5,6-pentafluorobenzamide]: 92%; for `CC(C)(C)Nc1ncnc2ccc(-c3ccc(F)c(CN(C(=O)c4ccc(C(F)(F)F)cc4F)C4CC4)c3)cc12` [Example 860, N-(5-(4-(tert-butylamino)quinazolin-6-yl)-2-fluorobenzyl)-N-cyclopropyl-2-fluoro-4-(trifluoromethyl)benzamide]: 63%.
Still for that read-out and setting: with `CN(C)CC(=O)N(Cc1cc(-c2ccc3ncnc(NC(C)(C)C)c3c2)ccc1F)C1CC1` [Example 861, N-(5-(4-(tert-butylamino)quinazolin-6-yl)-2-fluorobenzyl)-N-cyclopropyl-2-(dimethylamino)acetamide] the figure was 55%; with `COCCNc1ncnc2ccc(-c3cccc(CN4C(=O)CCC4=O)c3)cc12` [Example 867, 1-(3-(4-(2-methoxyethylamino)quinazolin-6-yl)benzyl)pyrrolidine-2,5-dione hydrochloride], 67%.
Turning to `NC1(C(=O)NCc2cccc(-c3ccc4ncnc(NC5CC5)c4c3)c2)CC1` [Example 869, 1-amino-N-(3-(4-(cyclopropylamino)quinazolin-6-yl)benzyl)cyclopropane carboxamide dihydrochloride], the inhibition at 10 µM was 65%.
Take `c1cc(Cn2cccc2)cc(-c2ccc3ncnc(NC4CC4)c3c2)c1` [Example 876, 6-(3-((1H-pyrrol-1-yl)methyl)phenyl)-N-cyclopropylquinazoline-4-amine]: the inhibition at 10 µM is 47%.
As for `CN(Cc1cccc(-c2ccc3ncnc(NC4CC4)c3c2)c1)c1ccccn1` [Example 878, N-cyclopropyl-6-(3-((methyl(pyridin-2-yl)amino)methyl)phenyl)quinazoline-4-amine], the inhibition at 10 µM came to 56%.
